Reference: patent US12281225B2, “Process for preparing stable polymers containing vinylimidazole” (BASF SE, priority 2018, dated 2025)

Assay: Analysis of active substance: preservative concentration before and after storage in VI-containing polymer solution
Assay type: physicochemical
Settings: for active-substance concentration, 0 d, RT: before storage; for active-substance concentration, 14 d, 40° C.: storage 14 d at 40° C.; for active-substance concentration, 28 d, 40° C.: storage 28 d at 40° C.; for active-substance concentration, 60 d 40° C.: storage 60 d at 40° C.
Description: Stability of Preservatives in VI-Containing Polymers:
The following stabilizers for VI-containing polymers (here: aqueous solution of a copolymer of vinylpyrrolidone and vinylimidazole) were tested.
MIT, BIT, CMIT, OIT, DCOIT and iodopropynyl butyl carbamate were determined by RP chromatography with UV detection after dilution of the sample to be tested. An RP18 column was used for this purpose, with an eluent composed of an acid-methanol mixture under isocratic conditions.

Row | SMILES | active-substance concentration, 0 d, RT (in Polymer P1) | active-substance concentration, 14 d, 40° C. (in Polymer P1) | active-substance concentration, 28 d, 40° C. (in Polymer P1) | active-substance concentration, 60 d 40° C. (in Polymer P1) | active-substance concentration, 0 d, RT (in Polymer P2) | active-substance concentration, 14 d, 40° C. (in Polymer P2) | active-substance concentration, 28 d, 40° C. (in Polymer P2) | active-substance concentration, 60 d 40° C. (in Polymer P2) | active-substance concentration, 0 d, RT (in Polymer P3) | active-substance concentration, 14 d, 40° C. (in Polymer P3) | active-substance concentration, 28 d, 40° C. (in Polymer P3) | active-substance concentration, 60 d 40° C. (in Polymer P3) | active-substance concentration, 0 d, RT (in Polymer P4) | active-substance concentration, 14 d, 40° C. (in Polymer P4) | active-substance concentration, 28 d, 40° C. (in Polymer P4) | active-substance concentration, 60 d 40° C. (in Polymer P4) | active-substance concentration, 0 d, RT (in Polymer P5 (HP56)) | active-substance concentration, 14 d, 40° C. (in Polymer P5 (HP56)) | active-substance concentration, 28 d, 40° C. (in Polymer P5 (HP56)) | active-substance concentration, 60 d 40° C. (in Polymer P5 (HP56)) | further results
1 | CCCCCCCCn1sccc1=O [OIT, octylisothiazolinone] | 250 ppm | 142 ppm | 89 ppm | 72 ppm | 250 ppm | 170 ppm | 101 ppm | 84 ppm | 250 ppm | 163 ppm | 121 ppm | 96 ppm | 250 ppm | 165 ppm | 114 ppm | 90 ppm | 250 ppm | 142 ppm | 89 ppm | 72 ppm | active-substance concentration, 0 d, RT (in Polymer P6): 250 ppm; active-substance concentration, 14 d, 40° C. (in Polymer P6): 135 ppm; active-substance concentration, 28 d, 40° C. (in Polymer P6): 88 ppm; active-substance concentration, 60 d 40° C. (in Polymer P6): 68 ppm; active-substance concentration, 0 d, RT (in Polymer P7): 250 ppm; active-substance concentration, 14 d, 40° C. (in Polymer P7): 139 ppm; active-substance concentration, 28 d, 40° C. (in Polymer P7): 92 ppm; active-substance concentration, 60 d 40° C. (in Polymer P7): 73 ppm; active-substance concentration, 0 d, RT (in Polymer P8): 250 ppm; active-substance concentration, 14 d, 40° C. (in Polymer P8): 142 ppm; active-substance concentration, 28 d, 40° C. (in Polymer P8): 89 ppm; active-substance concentration, 60 d 40° C. (in Polymer P8): 72 ppm; active-substance concentration, 0 d, RT (in Polymer P9): 250 ppm; active-substance concentration, 14 d, 40° C. (in Polymer P9): 128 ppm; active-substance concentration, 28 d, 40° C. (in Polymer P9): 76 ppm; active-substance concentration, 60 d 40° C. (in Polymer P9): 62 ppm
2 | CCCCCCCCCCCCCCCC[N+](C)(C)Cc1ccccc1.[Cl-] [Polymer 16-BAC, cetylalkonium chloride] | 1000 ppm | 960 ppm | 960 ppm | 940 ppm | 1000 ppm | 960 ppm | 960 ppm | 940 ppm | 1000 ppm | 975 ppm | 968 ppm | 952 ppm | 1000 ppm | 964 ppm | 960 ppm | 944 ppm | 1000 ppm | 960 ppm | 960 ppm | 940 ppm | active-substance concentration, 0 d, RT (in Polymer P6): 1000 ppm; active-substance concentration, 14 d, 40° C. (in Polymer P6): 970 ppm; active-substance concentration, 28 d, 40° C. (in Polymer P6): 961 ppm; active-substance concentration, 60 d 40° C. (in Polymer P6): 954 ppm; active-substance concentration, 0 d, RT (in Polymer P7): 1000 ppm; active-substance concentration, 14 d, 40° C. (in Polymer P7): 975 ppm; active-substance concentration, 28 d, 40° C. (in Polymer P7): 966 ppm; active-substance concentration, 60 d 40° C. (in Polymer P7): 953 ppm; active-substance concentration, 0 d, RT (in Polymer P8): 1000 ppm; active-substance concentration, 14 d, 40° C. (in Polymer P8): 960 ppm; active-substance concentration, 28 d, 40° C. (in Polymer P8): 960 ppm; active-substance concentration, 60 d 40° C. (in Polymer P8): 940 ppm; active-substance concentration, 0 d, RT (in Polymer P9): 1000 ppm; active-substance concentration, 14 d, 40° C. (in Polymer P9): 960 ppm; active-substance concentration, 28 d, 40° C. (in Polymer P9): 960 ppm; active-substance concentration, 60 d 40° C. (in Polymer P9): 940 ppm
